From a melting point compilation (Tetko et al.; mined from patent text by program, amines drawn as free bases though some values may be those of a salt) come the findings set out here.

Each structure is given as a SMILES string.

One may read the melting point as the temperature, or range, at which the solid turns liquid. `CC(NCc1ccccc1)N(Cc1ccccc1)CC(C)[N+](=O)[O-]` (configuration not stated) came in with a melting point of 49.5 to 50 °C.

`Clc1nc(NC2CC2)nc(C2CC2)n1`: the melting point was in the range of 66 to 67 °C.

Consider `O=C(c1ccc(O)c(F)c1)N(c1ccc(O)cc1)c1ccc(F)cc1`, for which the melting point lay in the range of 110 to 112 °C.

Take `Cc1nn(-c2ccc(Cl)cc2Cl)c(=O)n(C)c1=O`: the melting point was 109 to 110 °C.

Take `CCCOc1c(OC)cc(NC(C)CCCN2C(=O)c3ccccc3C2=O)c2ncccc12` (configuration not stated): the melting point is 140 to 143 °C.

As for `Cn1nc(-c2cc(C(=O)O)c(Cl)cc2F)c(Cl)c1OC(F)F`, the melting point was in the range of 137 to 140 °C.

In turn, `COc1ccc(C2Sc3cccc4cccc(c34)NC(=O)C2O)cc1` (configuration not stated) came in with a melting point of 218 to 219 °C.

For `O=C(O)COc1ccc(-c2ccc(-c3c(Cc4ccccc4)sc4ccccc34)cc2)cc1Br`, the melting point lay within 150 to 152 °C.

`O=C(c1cc2ccccc2c(-c2ccccc2Cl)n1)N1CCCCC1` had a melting point of 161 °C.

For `NC[C@@H](O)[C@H](Cc1ccccc1)N(Cc1ccccc1)Cc1ccccc1`, the melting point was in the range of 72 to 76 °C.

Compound `CCN1c2cscc2CNc2ccccc21` displayed a melting point of 85 to 87 °C.

`Cn1c(C(F)(F)F)cc(=O)n(-c2cc(OS(=O)(=O)c3ccc(Cl)cc3)c(Cl)cc2F)c1=O`: the melting point fell in the range of 152 to 154 °C.

Consider `COc1ccc(NC(=N)c2ccc(SC)cc2)cc1`, for which the melting point fell in the range of 166 to 168 °C.

`C#CCOc1ccc(CCNC(=O)C(=O)c2ccc(-c3ccc(Cl)cc3)cc2)cc1OC`: the melting point lay within 122 to 124 °C.

The compound `c1ccc(C2=NN=C(N3CCSCC3)SC2)cc1` had a melting point of 160 °C.

Regarding `Cc1cc(SCc2ccc(OCc3ccc(Cl)cc3Cl)cc2)ccc1OCC(=O)O`, the melting point lay within 101 to 103 °C.

`Nc1ccc(C2(OC(=O)Nc3ccccc3)NCCC(c3ccccc3)O2)cc1` (configuration not stated): the melting point turned out to be 110 °C.

Compound `CSc1cc(C(C)=O)ccc1OCCCBr` came in with a melting point of 120 to 122 °C.

With `COc1ccc2c(c1)C(=O)c1c-2c(N2CCN(C(=O)CCNCCN(C)C)CC2)nc2ccccc12`, the melting point lay within 161 to 162 °C.

As for `O=C(O)c1ccc(-c2nc(-c3cccc(OC(F)(F)F)c3)cs2)cc1`, the melting point lay in the range of 233 to 234 °C.

`Cc1ccccc1-c1cc2cnc(N)nc2nc1NC(=O)NC(C)(C)C` yielded a melting point of 195 to 197 °C.

In turn, `COc1ccc(C2(C#N)CCC(C(=O)O)CC2)c2c1oc1ccccc12` (configuration not stated) had a melting point of 194 to 196 °C.

For the compound `CCc1nc2c(C)cc(C)nc2n1Cc1ccc(-c2ccccc2-c2nc(=O)o[nH]2)cc1`, the melting point was 149 to 152 °C.

Compound `CNc1ncc2c(-c3cccc(Cl)c3)cc(/C=C/C(=O)O)c(OC)c2n1` displayed a melting point of 291 to 295 °C.

The compound `O=C(O)CCC(CC=Cc1ccccc1Cl)(C(=O)C=Cc1ccc(Cl)cc1)c1ccccc1` (configuration not stated) registered a melting point of 90 to 125 °C.

For the compound `Cc1cc2c(cc1C(=O)c1c(C(F)(F)F)ccnc1Cl)OCO2`, the melting point is 119 to 122 °C.

Compound `COc1ccc2c(n1)C1(CO2)C(=O)N(Cc2csc(C(C)C)n2)c2ccccc21` (configuration not stated) gave a melting point of 136 to 138 °C.

`O=C(c1cccs1)C1CCN(CCc2ccccc2)CC1` returned a melting point of 77 to 79 °C.

Regarding `CC(C)(C)OC(=O)n1ccc2c3[nH]c(CO)nc3ccc21`, the melting point came to 152 °C.

For `CCC(=O)NCCc1c(-c2ccccc2)nn2ccc3occc3c12`, the melting point was in the range of 161 to 163 °C.

Compound `NC(=O)c1c(N)oc2ccccc2c1=O` gave a melting point of 264 to 266 °C.

As to `COc1cc(Nc2c(C#N)cnc3cc(-c4ccc(CN5CCCCC5)cc4)sc23)c(Cl)cc1Cl`, the melting point fell in the range of 218 to 220 °C.

Take `Cc1cc2c(Cl)nnc(Cl)c2n1Cc1ccccc1`: the melting point lay in the range of 122 to 124 °C.

Compound `COc1c(C)cc([N+](=O)[O-])cc1C(=S)N(C)C` registered a melting point of 138 to 139 °C.

For `CC(=O)NC(CCC(=O)c1c(F)cccc1F)c1ccc(Br)cc1` (configuration not stated), the melting point was 162 to 163 °C.

`COC(=O)c1ccc(Br)c(S)c1` had a melting point of 81 °C.

As for `CC(=O)Nc1ccccc1CC1NC(=O)NC1=O` (configuration not stated), the melting point is 200 to 202 °C.

In the case of `O=C(NCCCCOc1cc(CN2CCCCC2)ccn1)c1cn[nH]c1`, the melting point lay in the range of 145 to 147 °C.

Consider `Cc1c2c(c(C)n1-c1ccccc1)C(C)(C)OC2(C)C`, for which the melting point is 113 to 116 °C.

In the case of `CNC(=O)N1N=C(c2ccc(N)cc2)c2cc(Br)ccc2CC1C` (configuration not stated), the melting point was in the range of 121 to 124 °C.

`CC(C)CCOCc1cccc(N2N=C(C(N)=O)NC2c2ccccc2F)c1` (configuration not stated) returned a melting point of 120 to 122 °C.

Compound `COc1ccc(C(=O)Nc2ccccc2)cc1NCc1ccc2c(c1)OCO2` displayed a melting point of 185 to 187 °C.

With `O=C(Nc1cc(Cl)cc(Cl)c1)c1cc(F)ccc1O`, the melting point is 258 to 260 °C.

As to `CCc1nc2c(N)nc3ccccc3c2n1CC1(C(N)=O)CCC1`, the melting point was in the range of 227 to 230 °C.

Compound `CCOC(=O)C(C=O)Cc1cnc(C)c(C)c1` (configuration not stated) registered a melting point of 148 to 149 °C.

`O=c1oc2ccccc2c(OCCN2CCOCC2)c1-c1ccccc1` returned a melting point of 97 °C.

`OCc1c(OCc2ccccc2)ccc2c1CC[C@@H](NC1CCC1)[C@@H]2O` (relative stereo): the melting point fell in the range of 156 to 158 °C.

In the case of `CCCCCCCCCCCCCCCCCCN(C)[Si](C)(C)C`, the melting point fell in the range of 35 to 40 °C.

Take `Nc1ncnc2c1sc(=O)n2C1OC(CO)C(O)C1O` (configuration not stated): the melting point lay within 248 to 250 °C.

As to `CC(=O)c1cc(Cl)c(N)c(C#N)c1F`, the melting point lay within 180 to 182 °C.

`CCOC(=O)C(C)(C(=O)OCC)c1cccc(C(=O)c2ccccc2)c1[N+](=O)[O-]` showed a melting point of 102 to 104 °C.

`Cc1ccc2c(n1)C(=O)N(c1c(Cl)ccc(C)c1C#N)C2=O` showed a melting point of 173 to 176 °C.

Compound `Cc1cn(C2CC(F)C(CO)O2)c(=S)[nH]c1=S` (configuration not stated) registered a melting point of 164 to 165 °C.

Compound `CCN(CC)CCOc1ccc2cc3ccc(OCCN(CC)CC)c(Cl)c3nc2c1Cl` returned a melting point of 83 to 84 °C.

Turning to `COc1ccc(/C=C(\C#N)c2ccc(O)cc2)cc1OC1CCCC1`, the melting point was 138 to 140 °C.

Compound `CS(=O)(=O)c1nccc(-n2cncn2)n1` returned a melting point of 135 to 136 °C.

As to `CCOC(=O)c1cnn2c1c(N1CCOCC1)nc1ccccc12`, the melting point lay in the range of 142 to 143 °C.

On to `CCCC(=O)c1c(O)oc(=O)c(C(=O)CCC)c1O`, for which the melting point lay in the range of 80 to 82 °C.

For `CC(C)(C)C(=C=CCl)c1ccccc1-c1ccccc1`, the melting point was 85 to 86 °C.

For `CCCCCC(O)C1C(=O)NC(C(=O)SCC(=O)OC)(C(O)C2C=CCCC2)C1(C)O` (configuration not stated), the melting point was found to be 75 °C.

The compound `CC(C)(C)OC(=O)N1CCCN(c2ccc([N+](=O)[O-])cc2)CC1` returned a melting point of 128 to 130 °C.

Compound `NC(=O)c1cccc(C2OCCO2)c1` returned a melting point of 92 to 94 °C.

Compound `CCOC(=O)CNC(=O)CCCCCNC(=O)c1cccc(C(F)(F)F)c1` came in with a melting point of 102 to 104 °C.

As for `CCC(C)Nc1c([N+](=O)[O-])cc(C)c(Cl)c1[N+](=O)[O-]` (configuration not stated), the melting point fell in the range of 40 to 46 °C.

Consider `COc1ccc(-c2ccc3c(F)c(OC)ccc3c2)cc1`, for which the melting point was 150 to 155 °C.

With `CCC(=NO)c1ccncc1`, the melting point is 141 to 144 °C.

Consider `CCON=Cc1cnnc2ccccc12`, for which the melting point lay in the range of 78 to 81 °C.

The compound `COc1cc(Cl)c2c(c1)CCN2c1cc(NC(C)C2CCC2)nc(C)n1` (configuration not stated) had a melting point of 125 to 128 °C.

Consider `CN(C)CC1COC2(CCN(c3nc4c(cc3F)C=C(C(=O)O)CN4c3ccc(F)cc3F)C2)O1` (configuration not stated), for which the melting point fell in the range of 154 to 155 °C.

As for `CC(=O)OC1CSC(Oc2cccc3c2nc(C)n3C)C(OC(C)=O)C1OC(C)=O` (configuration not stated), the melting point stood at 192 °C.

For the compound `CCOC(C)n1c(Cl)nc(-c2ccc(OC)cc2)c1-c1ccc(OC)cc1` (configuration not stated), the melting point was in the range of 118 to 120 °C.

In turn, `CCOC(=O)CCNC(=O)N1CCn2c(c(C(N)=O)c(Cl)c2-c2ccccc2)C1` had a melting point of 50 to 60 °C.

As for `CC(CC1OCCc2ccccc21)NCC(O)c1ccc(O)cc1` (configuration not stated), the melting point lay in the range of 83 to 105 °C.

`CCOC(=O)c1ccc(OCCCCCCCCCCCCCOc2ccc(Cl)cc2)cc1` had a melting point of 75 to 77 °C.

`Cc1cccc(-n2nc(C(N)=O)nc2-c2ccccc2)c1`: the melting point lay within 142 to 143 °C.

For the compound `CC(=O)SCC(C(=O)O)C(F)(F)F` (configuration not stated), the melting point is 28 to 30 °C.

With `CCCC(=O)c1cc(-c2ccccc2)ns1`, the melting point is 70 °C.

Consider `CC1=CC2=C(N3CN(n4cc(C)nc4-c4cc(Cl)ccc4Cl)C=C3N=N2)N(c2cc(Cl)ccc2Cl)C1`, for which the melting point came to 130 °C.

Regarding `CC(C#Cc1ccc(C=Cc2ccccn2)o1)N(O)C(N)=O` (configuration not stated), the melting point is 175 °C.

For the compound `O=C(O)C(O)N1C(=O)CCN1c1cccc(C(F)(F)F)c1` (configuration not stated), the melting point is 142 to 144 °C.

Turning to `CCOC(=O)C[C@H]1O[C@H](c2ccc(OCC)cc2OC)c2cc(Cl)ccc2N(CC(C)(C)C)C1=O` (relative stereo), the melting point was 164 to 166 °C.

In turn, `Nc1c(Cl)c(F)nc(F)c1Cl` showed a melting point of 110 °C.

As to `O=C1OCCC12Oc1ccccc1C2=O` (configuration not stated), the melting point fell in the range of 111 to 112 °C.

The compound `CCCCCCCc1ccc(CCCCCCC)c(C#N)c1C#N` had a melting point of 4.6 °C.

Regarding `Clc1nccc(N2CCC3(CC2)OCc2ccccc23)c1Cl`, the melting point was 161 °C.

As to `CON=C(C)COc1c(-c2ccc(S(C)(=O)=O)cc2)cnn(-c2ccc(F)c(F)c2)c1=O`, the melting point was in the range of 143 to 145 °C.

The compound `CC(C)(C)OC(=O)CCOCCc1cccc(-c2nc(=O)c3ccccc3s2)n1` had a melting point of 67.7 to 68.5 °C.

With `CCNCCCCCC(C)O` (configuration not stated), the melting point is 37 to 38 °C.

In the case of `CS(=O)(=O)c1ccc(Oc2ccc3[nH]c(C4=NCC(CC(=O)N5CCOCC5)S4)cc3c2)cn1` (configuration not stated), the melting point is 168 to 169 °C.

The compound `CC=C1CCC2C3C(O)CC4CC(O)CCC4(C)C3CCC12C` (configuration not stated) yielded a melting point of 160 to 161 °C.

For `CSc1nnc(-c2ccnc(Nc3cccc(C(F)(F)F)c3)c2)o1`, the melting point fell in the range of 189 to 190 °C.

Compound `Cc1nc(Nc2ccc(Cl)cc2)sc1-c1nc2ccccc2c(=O)n1-c1ccccc1` had a melting point of 230 to 232 °C.
